The source of these data is ChEMBL document CHEMBL1148480, “Structure-activity studies of orexin a and orexin B at the human orexin 1 and orexin 2 receptors led to orexin 2 receptor selective and orexin 1 receptor preferring ligands” (J Med Chem, 2004).

Residues, ends and D or L forms follow the SMILES beside them. Some results are limits rather than exact numbers.

As a reminder, the EC50 is the concentration needed to bring the measured effect to its halfway point.

The target in one assay is T1, Orexin receptor type 2 (Homo sapiens, UniProt O43614).
T1 sequence (O43614 whole entry): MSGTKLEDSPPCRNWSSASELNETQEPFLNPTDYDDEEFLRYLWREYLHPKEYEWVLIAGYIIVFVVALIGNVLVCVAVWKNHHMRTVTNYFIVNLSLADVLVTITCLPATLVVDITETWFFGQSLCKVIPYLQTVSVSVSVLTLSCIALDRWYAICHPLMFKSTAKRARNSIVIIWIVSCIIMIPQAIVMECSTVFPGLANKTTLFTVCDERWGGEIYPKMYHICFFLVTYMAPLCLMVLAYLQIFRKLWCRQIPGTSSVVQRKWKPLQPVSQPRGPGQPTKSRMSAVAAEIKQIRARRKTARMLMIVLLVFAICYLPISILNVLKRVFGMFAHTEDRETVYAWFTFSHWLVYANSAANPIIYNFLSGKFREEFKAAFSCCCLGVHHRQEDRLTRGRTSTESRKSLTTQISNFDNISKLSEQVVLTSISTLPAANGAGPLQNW
Put plainly: Effective agonist concentration to the human Orexin receptor type 2 was determined using the Xlfit program. The class given is functional.

Assay [1] deals with T2, Orexin/Hypocretin receptor type 1 (Homo sapiens, UniProt O43613).
T2 sequence (O43613 whole entry): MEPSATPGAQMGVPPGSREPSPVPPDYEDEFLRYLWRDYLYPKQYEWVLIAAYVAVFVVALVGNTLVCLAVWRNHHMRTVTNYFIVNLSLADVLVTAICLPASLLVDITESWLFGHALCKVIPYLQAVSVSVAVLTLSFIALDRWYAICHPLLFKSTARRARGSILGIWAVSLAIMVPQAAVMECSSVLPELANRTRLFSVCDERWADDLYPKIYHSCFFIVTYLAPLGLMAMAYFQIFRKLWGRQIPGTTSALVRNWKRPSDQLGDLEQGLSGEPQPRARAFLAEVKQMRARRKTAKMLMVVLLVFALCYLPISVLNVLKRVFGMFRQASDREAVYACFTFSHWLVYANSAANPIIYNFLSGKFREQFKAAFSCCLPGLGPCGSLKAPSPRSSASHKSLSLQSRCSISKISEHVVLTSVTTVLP
Put plainly: Effective agonist concentration to human orexin receptor type 1 determined using the Xlfit program. Format: functional.

A short description of assay [2]: Ratio of orexin-1 receptor to orexin-2 receptor in human.

For the molecule `CC[C@H](C)[C@H](NC(=O)CNC(=O)[C@H](C)NC(=O)[C@H](C)NC(=O)[C@H](Cc1c[nH]cn1)NC(=O)[C@H](CC(N)=O)NC(=O)CNC(=O)[C@H](CO)NC(=O)[C@H](C)NC(=O)[C@H](CCC(N)=O)NC(=O)[C@H](CC(C)C)NC(=O)[C@H](CC(C)C)NC(=O)[C@H](CCCN=C(N)N)NC(=O)[C@H](CCC(N)=O)NC(=O)[C@H](CC(C)C)NC(=O)[C@H](CCCN=C(N)N)NC(=O)CNC(=O)[C@H](CCC(N)=O)NC(=O)[C@H](CC(C)C)NC(=O)CN)C(=O)N[C@@H](CC(C)C)C(=O)N[C@H](C(=O)N1CCC[C@H]1C(=O)O)[C@@H](C)O` (H-GLQGRLQRLLQASGNHAAGILTP-OH), the EC50 at Orexin receptor type 2 is 3.63 µM; in assay [1], > 1000 µM. Besides, in assay [2], the Ratio was > 275.

With `CC[C@H](C)[C@H](NC(=O)CNC(=O)[C@H](C)NC(=O)[C@H](C)NC(=O)[C@H](Cc1c[nH]cn1)NC(=O)[C@H](CC(N)=O)NC(=O)CNC(=O)[C@H](CO)NC(=O)[C@H](C)NC(=O)[C@H](CCC(N)=O)NC(=O)[C@H](CC(C)C)NC(=O)[C@H](CC(C)C)NC(=O)[C@H](CCCN=C(N)N)NC(=O)[C@H](CCC(N)=O)NC(=O)[C@H](CC(C)C)NC(=O)[C@H](CCCN=C(N)N)NC(=O)CNC(=O)[C@H](CCC(N)=O)NC(=O)[C@H](CC(C)C)NC(=O)CN)C(=O)N[C@@H](CC(C)C)C(=O)N[C@H](C(=O)N[C@@H](C)C(=O)O)[C@@H](C)O` (H-GLQGRLQRLLQASGNHAAGILTA-OH), the results for the EC50 (at Orexin receptor type 2; in assay [1]) were 0.75 µM and 4.84 µM, respectively. Moreover, the Ratio in assay [2] was 6.5.

In the case of `CC[C@H](C)[C@H](NC(=O)CNC(=O)[C@H](C)NC(=O)[C@H](C)NC(=O)[C@H](Cc1c[nH]cn1)NC(=O)[C@H](CC(N)=O)NC(=O)CNC(=O)[C@H](C)NC(=O)CNC(=O)[C@H](Cc1c[nH]cn1)NC(=O)[C@H](CC(C)C)NC(=O)[C@H](CC(C)C)NC(=O)[C@H](CCC(=O)O)NC(=O)[C@H](Cc1ccc(O)cc1)NC(=O)[C@H](CC(C)C)NC(=O)[C@H](CCCN=C(N)N)NC(=O)[C@H](CS)NC(=O)[C@H](CO)NC(=O)[C@H](CS)NC(=O)[C@@H](NC(=O)[C@H](CCCCN)NC(=O)[C@H](CCC(N)=O)NC(=O)[C@H](CCCN=C(N)N)NC(=O)[C@H](CS)NC(=O)[C@H](CS)NC(=O)[C@H](CC(=O)O)NC(=O)[C@@H]1CCCN1C(=O)[C@H](CC(C)C)NC(=O)[C@@H]1CCCN1)[C@@H](C)O)C(=O)N[C@@H](CC(C)C)C(=O)N[C@H](C(=O)N[C@@H](CC(C)C)C(=O)O)[C@@H](C)O`, the half-maximal effective concentration (EC50) on Orexin receptor type 2 came out at 2.51 µM; in assay [1] it was 0.86 µM. Moreover, the Ratio in assay [2] was found to be 0.3.

Regarding `CC[C@H](C)[C@H](NC(=O)CNC(=O)[C@H](C)NC(=O)[C@H](C)NC(=O)[C@H](Cc1c[nH]cn1)NC(=O)[C@H](CC(N)=O)NC(=O)CNC(=O)[C@H](CO)NC(=O)[C@H](C)NC(=O)[C@H](CCC(N)=O)NC(=O)[C@H](CC(C)C)NC(=O)[C@H](CC(C)C)NC(=O)[C@H](CCCN=C(N)N)NC(=O)[C@H](CCC(N)=O)NC(=O)[C@H](CC(C)C)NC(=O)[C@H](CCCN=C(N)N)NC(=O)CNC(=O)[C@H](CCC(N)=O)NC(=O)[C@H](CC(C)C)NC(=O)[C@@H]1CCCN1)C(=O)N[C@@H](CC(C)C)C(=O)N[C@H](C(=O)N[C@@H](CCSC)C(=O)O)[C@@H](C)O` (H-PLQGRLQRLLQASGNHAAGILTM-OH), the EC50 was found to be 0.49 µM at Orexin receptor type 2 and 8.28 µM in assay [1]. Also, the Ratio in assay [2] amounted to 16.9.

Turning to `CC[C@H](C)[C@H](NC(=O)CNC(=O)[C@H](C)NC(=O)[C@H](C)NC(=O)[C@H](Cc1c[nH]cn1)NC(=O)[C@H](CC(N)=O)NC(=O)CNC(=O)[C@H](CO)NC(=O)[C@H](C)NC(=O)[C@H](CCC(N)=O)NC(=O)[C@H](CC(C)C)NC(=O)[C@H](CC(C)C)NC(=O)[C@H](CCCN=C(N)N)NC(=O)[C@H](CCC(N)=O)NC(=O)[C@H](CC(C)C)NC(=O)[C@H](CCCN=C(N)N)NC(=O)CNC(=O)[C@H](CCC(N)=O)NC(=O)[C@H](CC(C)C)NC(=O)CN)C(=O)N[C@@H](CC(C)C)C(=O)N[C@@H](C)C(=O)N[C@@H](CCSC)C(=O)O` (H-GLQGRLQRLLQASGNHAAGILAM-OH), the results for the EC50 (at Orexin receptor type 2; in assay [1]) were 0.76 µM and > 1000 µM, respectively. Further, the Ratio in assay [2] is > 1350.

For `CC[C@H](C)[C@H](NC(=O)CNC(=O)[C@H](C)NC(=O)[C@H](C)NC(=O)[C@H](Cc1c[nH]cn1)NC(=O)[C@H](CC(N)=O)NC(=O)CNC(=O)[C@H](CO)NC(=O)[C@H](C)NC(=O)[C@H](CCC(N)=O)NC(=O)[C@H](CC(C)C)NC(=O)[C@H](C)NC(=O)[C@H](CCCN=C(N)N)NC(=O)[C@H](CCC(N)=O)NC(=O)[C@H](CC(C)C)NC(=O)[C@H](CCCN=C(N)N)NC(=O)CNC(=O)[C@H](CCC(N)=O)NC(=O)[C@H](CC(C)C)NC(=O)CN)C(=O)N[C@@H](CC(C)C)C(=O)N[C@H](C(=O)N[C@@H](CCSC)C(=O)O)[C@@H](C)O` (H-GLQGRLQRALQASGNHAAGILTM-OH), the EC50 amounted to 2.28 µM at Orexin receptor type 2 and 5.89 µM in assay [1]. Besides, the Ratio in assay [2] came out at 2.6.

Regarding `CC[C@H](C)[C@H](NC(=O)CNC(=O)[C@H](C)NC(=O)[C@H](C)NC(=O)[C@H](Cc1c[nH]cn1)NC(=O)[C@H](CC(N)=O)NC(=O)CNC(=O)[C@H](CO)NC(=O)[C@H](C)NC(=O)[C@@H]1CCCN1C(=O)[C@H](CC(C)C)NC(=O)[C@H](CC(C)C)NC(=O)[C@H](CCCN=C(N)N)NC(=O)[C@H](CCC(N)=O)NC(=O)[C@H](CC(C)C)NC(=O)[C@H](CCCN=C(N)N)NC(=O)CNC(=O)[C@H](CCC(N)=O)NC(=O)[C@H](CC(C)C)NC(=O)CN)C(=O)N[C@@H](CC(C)C)C(=O)N[C@H](C(=O)N[C@@H](CCSC)C(=O)O)[C@@H](C)O` (H-GLQGRLQRLLPASGNHAAGILTM-OH), the 50% effective concentration (EC50) at Orexin receptor type 2 came to 2.48 µM; in assay [1] it was 9.49 µM. In assay [2], the Ratio came out at 3.8.

In the case of `CC[C@H](C)[C@H](NC(=O)[C@@H]1CCCN1C(=O)[C@H](C)NC(=O)[C@H](C)NC(=O)[C@H](Cc1c[nH]cn1)NC(=O)[C@H](CC(N)=O)NC(=O)CNC(=O)[C@H](CO)NC(=O)[C@H](C)NC(=O)[C@H](CCC(N)=O)NC(=O)[C@H](CC(C)C)NC(=O)[C@H](CC(C)C)NC(=O)[C@H](CCCN=C(N)N)NC(=O)[C@H](CCC(N)=O)NC(=O)[C@H](CC(C)C)NC(=O)[C@H](CCCN=C(N)N)NC(=O)CNC(=O)[C@H](CCC(N)=O)NC(=O)[C@H](CC(C)C)NC(=O)CN)C(=O)N[C@@H](CC(C)C)C(=O)N[C@H](C(=O)N[C@@H](CCSC)C(=O)O)[C@@H](C)O` (H-GLQGRLQRLLQASGNHAAPILTM-OH), the EC50 at Orexin receptor type 2 was 9.43 µM; in assay [1], > 1000 µM. Besides, the Ratio in assay [2] is > 105.

For the molecule `CC[C@H](C)[C@H](NC(=O)CNC(=O)[C@H](C)NC(=O)[C@H](C)NC(=O)[C@H](Cc1c[nH]cn1)NC(=O)[C@H](CC(N)=O)NC(=O)CNC(=O)[C@H](CO)NC(=O)[C@H](C)NC(=O)[C@H](CCC(N)=O)NC(=O)[C@@H]1CCCN1C(=O)[C@H](CC(C)C)NC(=O)[C@H](CCCN=C(N)N)NC(=O)[C@H](CCC(N)=O)NC(=O)[C@H](CC(C)C)NC(=O)[C@H](CCCN=C(N)N)NC(=O)CNC(=O)[C@H](CCC(N)=O)NC(=O)[C@H](CC(C)C)NC(=O)CN)C(=O)N[C@@H](CC(C)C)C(=O)N[C@H](C(=O)N[C@@H](CCSC)C(=O)O)[C@@H](C)O` (H-GLQGRLQRLPQASGNHAAGILTM-OH), the concentration giving a half-maximal response (EC50) on Orexin receptor type 2 was 20.1 µM; in assay [1], > 1000 µM. In assay [2], the Ratio is > 50.

Turning to `CC[C@H](C)[C@H](NC(=O)CNC(=O)[C@H](C)NC(=O)[C@H](C)NC(=O)[C@H](Cc1c[nH]cn1)NC(=O)[C@H](CC(N)=O)NC(=O)CNC(=O)[C@H](CO)NC(=O)[C@H](C)NC(=O)[C@H](CCC(N)=O)NC(=O)[C@H](CC(C)C)NC(=O)[C@H](CC(C)C)NC(=O)[C@H](CCCN=C(N)N)NC(=O)[C@H](CCC(N)=O)NC(=O)[C@H](CC(C)C)NC(=O)[C@H](CCCN=C(N)N)NC(=O)CNC(=O)[C@H](CCC(N)=O)NC(=O)[C@H](CC(C)C)NC(=O)CN)C(=O)N1CCC[C@H]1C(=O)N[C@H](C(=O)N[C@@H](CCSC)C(=O)O)[C@@H](C)O` (H-GLQGRLQRLLQASGNHAAGIPTM-OH), the EC50 on Orexin receptor type 2 was determined as 0.63 µM; in assay [1], 8.77 µM. For the same molecule, in assay [2], the Ratio stood at 13.9.
